In assay [1] the target is T1, Flt-3 kinase (Homo sapiens, UniProt P36888).
T1 sequence (P36888 27-993): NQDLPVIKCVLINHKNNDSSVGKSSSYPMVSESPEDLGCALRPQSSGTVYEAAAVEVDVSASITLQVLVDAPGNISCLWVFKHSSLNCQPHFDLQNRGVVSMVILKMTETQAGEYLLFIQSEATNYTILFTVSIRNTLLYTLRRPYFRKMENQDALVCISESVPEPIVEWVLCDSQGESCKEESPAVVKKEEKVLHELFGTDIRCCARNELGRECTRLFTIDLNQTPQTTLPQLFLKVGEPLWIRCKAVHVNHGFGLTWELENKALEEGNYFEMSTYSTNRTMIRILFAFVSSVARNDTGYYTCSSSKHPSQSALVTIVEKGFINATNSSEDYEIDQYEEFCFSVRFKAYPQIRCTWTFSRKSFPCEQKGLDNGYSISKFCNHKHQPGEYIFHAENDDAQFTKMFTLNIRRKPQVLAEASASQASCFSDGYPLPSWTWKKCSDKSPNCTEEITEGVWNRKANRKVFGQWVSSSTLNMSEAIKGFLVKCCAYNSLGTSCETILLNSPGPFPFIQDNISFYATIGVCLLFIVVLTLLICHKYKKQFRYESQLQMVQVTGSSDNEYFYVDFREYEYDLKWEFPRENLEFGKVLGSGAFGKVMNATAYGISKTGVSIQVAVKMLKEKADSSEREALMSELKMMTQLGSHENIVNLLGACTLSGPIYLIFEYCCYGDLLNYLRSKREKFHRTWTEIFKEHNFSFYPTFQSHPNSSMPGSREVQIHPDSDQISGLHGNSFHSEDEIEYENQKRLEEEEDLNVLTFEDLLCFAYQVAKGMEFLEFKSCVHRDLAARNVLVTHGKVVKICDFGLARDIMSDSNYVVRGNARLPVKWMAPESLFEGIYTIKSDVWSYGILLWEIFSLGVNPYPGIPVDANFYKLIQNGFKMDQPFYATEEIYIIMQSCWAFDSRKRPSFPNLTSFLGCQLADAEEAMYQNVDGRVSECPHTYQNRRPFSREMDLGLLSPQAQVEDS
The assay can be described thus: Flt-3 kinase biochemical activity assay (AlphaScreen). Conditions: 100 μM ATP; read-out: Biochemical Inhibition IC50 Flt3. In short, it runs like this:
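Recombinant kinase (1 ng/well) phosphorylated 30 nM biotin-(E4Y)10 with 100 μM ATP in Hepes pH 7.5 buffer with Mg/Mn, 5% DMSO, for 1 h at room temperature. EDTA-containing AlphaScreen streptavidin donor/PY20 acceptor beads detected phosphotyrosine; IC50 was derived from signal versus concentration.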
In general terms: In Alpha technology, singlet oxygen from a donor bead excites a nearby acceptor bead.

Assay [2] concerns the target TrkA kinase (Homo sapiens, UniProt P04629). The assay can be described thus: TrkA kinase biochemical activity assay (AlphaScreen). The conditions noted are these: 100 μM ATP; read-out: Biochemical Inhibition IC50 TrkA. In a few lines: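 Recombinant TrkA with 30 nM biotin-(E4Y)10 and 100 μM ATP in 25 mM Hepes pH 7.5, 10 mM MnCl2, 5% DMSO, 40 min at room temperature. Phosphorylation read by AlphaScreen (streptavidin donor, PY20 acceptor beads); IC50 from signal vs compound concentration. TrkC run similarly.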

Chain of TrkA kinase (P04629 33-796): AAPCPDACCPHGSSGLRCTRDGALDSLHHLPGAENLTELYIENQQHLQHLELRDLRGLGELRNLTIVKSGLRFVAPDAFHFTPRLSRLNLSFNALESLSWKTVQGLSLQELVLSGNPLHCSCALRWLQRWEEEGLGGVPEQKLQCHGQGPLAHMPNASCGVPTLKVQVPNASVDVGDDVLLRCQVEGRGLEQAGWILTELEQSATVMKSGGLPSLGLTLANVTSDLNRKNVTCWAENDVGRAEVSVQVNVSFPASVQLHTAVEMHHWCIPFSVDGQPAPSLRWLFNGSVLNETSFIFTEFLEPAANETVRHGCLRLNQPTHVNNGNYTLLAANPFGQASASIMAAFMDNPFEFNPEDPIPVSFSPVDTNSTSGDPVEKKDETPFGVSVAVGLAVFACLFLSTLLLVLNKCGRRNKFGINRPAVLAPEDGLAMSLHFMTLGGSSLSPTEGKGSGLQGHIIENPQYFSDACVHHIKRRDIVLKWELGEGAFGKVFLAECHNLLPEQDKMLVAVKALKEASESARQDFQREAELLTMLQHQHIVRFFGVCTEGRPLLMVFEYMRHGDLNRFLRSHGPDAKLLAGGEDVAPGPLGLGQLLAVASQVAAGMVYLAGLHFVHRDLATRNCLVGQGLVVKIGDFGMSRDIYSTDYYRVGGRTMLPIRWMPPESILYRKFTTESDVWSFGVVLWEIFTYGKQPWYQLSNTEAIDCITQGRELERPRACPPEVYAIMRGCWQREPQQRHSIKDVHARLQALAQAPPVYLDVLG

Usually IC50 stands for the midpoint of a concentration-inhibition curve. For `CCOc1ccc(Nc2ccc(Cc3c[nH]c4ncnc(OC)c34)c(F)n2)cn1` [Compound P-4005, (6-Ethoxy-pyridin-3-yl)-[6-fluoro-5-(4-methoxy-7H-pyrrolo[2,3-d]pyrimidin-5-ylmethyl)-pyridin-2-yl]-amine], the 50% inhibitory concentration (IC50) in assay [1] and in assay [2] was under 100 nM in each case.

In the case of `CCc1ccc(Nc2ncc(Cc3c[nH]c4ncc(C)cc34)cn2)cc1` [Compound P-3025, (4-Ethyl-phenyl)-[5-(5-methyl-1H-pyrrolo[2,3-b]pyridin-3-ylmethyl)-pyrimidin-2-yl]-amine], the IC50 in assay [1] is under 10 nM; in assay [2], under 100 nM.

Turning to `COc1ccc(Nc2ccc(C(=O)c3c[nH]c4ncnc(C5CC5)c34)c(F)n2)cn1` [Compound P-4022, (4-cyclopropyl-7H-pyrrolo[2,3-d]pyrimidin-5-yl)-[2-fluoro-6-(6-methoxy-pyridin-3-ylamino)-pyridin-3-yl]-methanone], the values for the half-maximal inhibitory concentration (IC50) in assay [1] and in assay [2] were under 100 nM and under 10 nM, respectively.

Turning to `CCn1cc(Nc2ccc(Cc3c[nH]c4ncnc(OCCOC)c34)c(F)n2)cn1` [Compound P-4014, (1-Ethyl-1H-pyrazol-4-yl)-{6-fluoro-5-[4-(2-methoxy-ethoxy)-7H-pyrrolo[2,3-d]pyrimidin-5-ylmethyl]-pyridin-2-yl}-amine], the half-maximal inhibitory concentration (IC50) in assay [1] was under 1000 nM; in assay [2], over 1000 nM.

With `CCn1cc(Nc2ccc(Cc3c[nH]c4ncnc(OC)c34)c(F)n2)cn1` [Compound P-4011, (1-Ethyl-1H-pyrazol-4-yl)-[6-fluoro-5-(4-methoxy-7H-pyrrolo[2,3-d]pyrimidin-5-ylmethyl)-pyridin-2-yl]-amine], the IC50 in assay [1] and in assay [2] was under 1000 nM each time.

Turning to `CCOc1ncnc2[nH]cc(Cc3ccc(Nc4ccc(C)nc4)nc3F)c12` [Compound P-4017, [5-(4-Ethoxy-7H-pyrrolo[2,3-d]pyrimidin-5-ylmethyl)-6-fluoro-pyridin-2-yl]-(6-methyl-pyridin-3-yl)-amine], the IC50 in assay [1] and in assay [2] was under 100 nM throughout.

Turning to `CCOc1ccc(Nc2ccc(C(=O)c3c[nH]c4ncnc(OC)c34)c(F)n2)cn1` [Compound P-4024, [6-(6-Ethoxy-pyridin-3-ylamino)-2-fluoro-pyridin-3-yl]-(4-methoxy-7H-pyrrolo[2,3-d]pyrimidin-5-yl)-methanone], the IC50 in assay [1] and in assay [2] was under 100 nM each time.

Consider `CCc1ccc(Nc2ccc(C(=O)c3c[nH]c4ncnc(C5CC5)c34)c(F)n2)cn1` [Compound P-4029, (4-Cyclopropyl-7H-pyrrolo[2,3-d]pyrimidin-5-yl)-[6-(6-ethyl-pyridin-3-ylamino)-2-fluoro-pyridin-3-yl]-methanone], for which the IC50 in assay [1] and in assay [2] was under 10 nM throughout.

As to `CCCOc1ccc(Nc2ncc(Cc3c[nH]c4ncc(C)cc34)cn2)cc1` [Compound P-3024, [5-(5-Methyl-1H-pyrrolo[2,3-b]pyridin-3-ylmethyl)-pyrimidin-2-yl]-(4-propoxy-phenyl)-amine], the concentration for half-maximal inhibition (IC50) is under 10 nM in assay [1] and under 1000 nM in assay [2].

Turning to `COc1ccc(Nc2ccc(Cc3c[nH]c4ncnc(OC)c34)c(F)n2)cn1` [Compound P-4001, [6-Fluoro-5-(4-methoxy-7H-pyrrolo[2,3-d]pyrimidin-5-ylmethyl)-pyridin-2-yl]-(6-methoxy-pyridin-3-yl)-amine], the figures for the 50% inhibitory concentration (IC50) in assay [1] and in assay [2] were under 1000 nM and under 100 nM, respectively.

As to `Cc1cnc2[nH]cc(Cc3ccc(Nc4ccc(C)nc4)nc3F)c2c1` [Compound P-3041, [6-Fluoro-5-(5-methyl-1H-pyrrolo[2,3-b]pyridin-3-ylmethyl)-pyridin-2-yl]-(6-methyl-pyridin-3-yl)-amine], the IC50 in assay [1] and in assay [2] was under 1000 nM throughout.
